# Measurements reported in patent US11806332B2, “Compositions and methods for inhibition of SARS-CoV-2 viral infections” (priority 2020, dated 2023).
# Like-named read-outs stand apart in the source and are kept apart here.
# Tests used:
# SARS-CoV-2 [1] = assay: Live virus-based microneutralization (MN) assay, SARS-CoV-2-induced CPE in Vero E6 cells; format: cell-based; design: key to SARS-CoV-2 induced CPE in Vero E6 cells: Cytotoxicity; ND: Both cytotoxicity and CPE are not detected.; SARS-CoV-2 induced CPE; conditions: for SARS-CoV-2 induced CPE in Vero E6 cells: Repeat 1 and 2
# SARS-CoV-2 [2] = format: cell-based; design: key: Cytotoxicity; ND: Both cytotoxicity and CPE are not detected.; SARS-CoV-2 induced CPE; conditions: Repeat 1 and 2
# [3] = mice, dose as high as 300 mg/kg/day; cited from earlier work
# [4] = patients, state Cmax; cited from earlier work
# M^Pro = M^Pro (Severe acute respiratory syndrome coronavirus 2, UniProt P0DTD1); format: biochemical
compound,measurement,setting,value
CC(C)COCC(CN(Cc1ccccc1)c1ccccc1)N1CCCC1 (stereo not drawn) [Bepridil],SARS-CoV-2 induced CPE in Vero E6 cells,SARS-CoV-2 [1]; bepridil 0.16 μM,CPE
same,SARS-CoV-2 induced CPE in Vero E6 cells,SARS-CoV-2 [1]; bepridil 0.31 μM,CPE
same,SARS-CoV-2 induced CPE in Vero E6 cells,SARS-CoV-2 [1]; bepridil 0.62 μM,CPE
same,SARS-CoV-2 induced CPE in Vero E6 cells,SARS-CoV-2 [1]; bepridil 1.25 μM,CPE
same,SARS-CoV-2 induced CPE in Vero E6 cells,SARS-CoV-2 [1]; bepridil 2.5 μM,CPE
same,SARS-CoV-2 induced CPE in Vero E6 cells,SARS-CoV-2 [1]; bepridil 50 μM,C
same,SARS-CoV-2 induced CPE in Vero E6 cells,SARS-CoV-2 [1]; bepridil 100 μM,C
same,SARS-CoV-2 induced CPE in Vero E6 cells,SARS-CoV-2 [1]; bepridil 200 μM,C^a and C
same,SARS-CoV-2 induced CPE in ACE2-expressing A549 cells,SARS-CoV-2 [2]; bepridil 1.56 μM,CPE
same,SARS-CoV-2 induced CPE in ACE2-expressing A549 cells,SARS-CoV-2 [2]; bepridil 3.12 μM,CPE
same,mating behavior and reproductive performance,[3],did not show alteration in mating behavior and reproductive performance
same,Cmax,[4],3.72 µM
CC(C)(C)c1ccc(C(=O)CCCN2CCC(OC(c3ccccc3)c3ccccc3)CC2)cc1 [Ebastine],Cytopathogenic effect (CPE),SARS-CoV-2 [1],observed
Cc1cccc(C)c1OCC(=O)N[C@@H](Cc1ccccc1)[C@@H](O)C[C@H](Cc1ccccc1)NC(=O)[C@H](C(C)C)N1CCCNC1=O [Lopinavir],IC50,"M^Pro; 50 nM M^Pro, 10 μM Sub3, mean ± SE, triplicate",486 ± 2 µM
same,Hill Slope,"M^Pro; Hill coefficient of IC50 curve, four-parameter fit",29.9 ± 2.4
same,Hill Slope,"M^Pro; Hill coefficient of IC50 curve, four-parameter fit, listed as lopinavir",lowest Hill coefficients
O=c1[nH]c2ccccc2n1C1CCN(CCCC(c2ccc(F)cc2)c2ccc(F)cc2)CC1 [Pimozide],Cytopathogenic effect (CPE),"SARS-CoV-2 [1]; Vero E6 cells, all tested concentrations, 0.16 to 200 μM",observed
CCOC(=O)/C=C/[C@H](C[C@@H]1CCNC1=O)NC(=O)[C@@H](CC(=O)[C@@H](NC(=O)c1cc(C)on1)C(C)C)Cc1ccc(F)cc1 [Rupintrivir],Hill Slope,M^Pro,1.4 ± 0.2
